Results taken from PubChem BioAssay AID330 (DTP/NCI, 2004).
“And” between values parts separate entries of the source, which are not always exact repeats. Identical values can stand only once. Toxic doses and inconclusive results are not listed. How the source made its calls: active means survival T/C of 150% or more; inactive means T/C below 125% in these data.

System: P388 leukemia ip, CD2F1 mice, survival T/C
Assay: NCI In Vivo Anticancer Drug Screen. Data for tumor model P388 Leukemia (intraperitoneal) in CD2F1 (CDF1) mice
Details: endpoint: median survival time, higher = longer survival
Summary of the method: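 Mice carrying the transplanted tumor received test compound or vehicle. Survival was recorded in each group, and the value is the treated-group measurement divided by that of the vehicle-treated control group.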

[1] = dose: 100.0 mg/kg/injection, schedule: Q01DX009 (ip), vehicle: saline
[2] = dose: 60.0 mg/kg/injection, schedule: Q01DX005 (ip), vehicle: saline with Tween-80
[3] = dose: 120.0 mg/kg/injection, schedule: Q01DX005 (ip), vehicle: saline with Tween-80
[4] = dose: 240.0 mg/kg/injection, schedule: Q01DX005 (ip), vehicle: saline with Tween-80
[5] = dose: 50.0 mg/kg/injection, schedule: Q01DX009 (ip), vehicle: suspension in saline
[6] = dose: 100.0 mg/kg/injection, schedule: Q01DX009 (ip), vehicle: suspension in saline
[7] = dose: 50.0 mg/kg/injection, schedule: Q01DX005 (ip), vehicle: saline with Tween-80
[8] = dose: 100.0 mg/kg/injection, schedule: Q01DX005 (ip), vehicle: saline with Tween-80
[9] = dose: 200.0 mg/kg/injection, schedule: Q01DX005 (ip), vehicle: saline with Tween-80
[10] = dose: 25.0 mg/kg/injection, schedule: Q01DX005 (ip), vehicle: saline with Tween-80

Measured: T/C

CC(=O)OCC12C(OC(C)=O)C(=O)C3C(OC(C)=O)C14OC3(C)COC(=O)c1cccnc1C(C)C(C)C(=O)OC(C(OC(C)=O)C2OC(C)=O)C4(C)O (stereo not given)
inactive: dose: 3.0 mg/kg/injection, schedule: Q01DX009 (ip), vehicle: Klucel (hydroxypropylcellulose) (HPC) 104 % of control | dose: 6.0 mg/kg/injection, schedule: Q01DX009 (ip), vehicle: Klucel (hydroxypropylcellulose) (HPC) 93 % of control | dose: 12.0 mg/kg/injection, schedule: Q01DX009 (ip), vehicle: Klucel (hydroxypropylcellulose) (HPC) 96 % of control | dose: 24.0 mg/kg/injection, schedule: Q01DX009 (ip), vehicle: Klucel (hydroxypropylcellulose) (HPC) 96 % of control

COc1cc(NCC(O)CN2C(C)CCCC2C)c2ncccc2c1 (stereo not given)
inactive: dose: 6.0 mg/kg/injection, schedule: Q01DX005 (ip), vehicle: saline 98 % of control | dose: 12.5 mg/kg/injection, schedule: Q01DX005 (ip), vehicle: saline 100 % of control

O=C(O)c1c[nH]c2cc(S(=O)(=O)O)ccc2c1=O
inactive: dose: 50.0 mg/kg/injection, schedule: Q01DX009 (ip), vehicle: saline 95 % of control | [1] 100 % of control | dose: 200.0 mg/kg/injection, schedule: Q01DX009 (ip), vehicle: saline 92 % of control

COc1ccc(Cc2cc(O)c(OC)cc2O)cc1
inactive: dose: 0.32 mg/kg/injection, schedule: Q01DX009 (ip), vehicle: saline with Tween-80 104 % of control | dose: 0.63 mg/kg/injection, schedule: Q01DX009 (ip), vehicle: saline with Tween-80 107 % of control | dose: 1.25 mg/kg/injection, schedule: Q01DX009 (ip), vehicle: saline with Tween-80 104 % of control | dose: 2.5 mg/kg/injection, schedule: Q01DX009 (ip), vehicle: saline with Tween-80 111 % of control | dose: 5.0 mg/kg/injection, schedule: Q01DX009 (ip), vehicle: saline with Tween-80 100 % of control and 108 % of control | dose: 10.0 mg/kg/injection, schedule: Q01DX009 (ip), vehicle: saline with Tween-80 106 % of control

CN1c2ccccc2S(=O)(=O)n2c(Cc3ccccc3)nnc21
inactive: dose: 100.0 mg/kg/injection, schedule: Q04DX002 (ip), vehicle: saline with Tween-80 92 % of control | dose: 200.0 mg/kg/injection, schedule: Q04DX002 (ip), vehicle: saline with Tween-80 90 % of control | dose: 400.0 mg/kg/injection, schedule: Q04DX002 (ip), vehicle: saline with Tween-80 90 % of control

O=P(OCCCl)(OCCCl)C(Nc1cccc2ccccc12)c1ccc(N(CCCl)CCCl)cc1 (stereo not given)
inactive: [2] 98 % of control | [3] 95 % of control | [4] 99 % of control

Cc1ccc(COc2ccc(Cl)cc2Cn2ccnc2)cc1
inactive: dose: 25.0 mg/kg/injection, schedule: Q04DX002 (ip), vehicle: saline 104 % of control | dose: 50.0 mg/kg/injection, schedule: Q04DX002 (ip), vehicle: saline 106 % of control | dose: 100.0 mg/kg/injection, schedule: Q04DX002 (ip), vehicle: saline 106 % of control and 116 % of control

Nc1nc2ccc(Br)cc2s1
inactive: [5] 97 % of control | [1] 86 % of control | [6] 102 % of control

C(=C\c1nc2ccccc2s1)/c1ccc2c(c1)OCO2
inactive: dose: 50.0 mg/kg/injection, schedule: Q01DX009 (ip), vehicle: saline with Tween-80 90 % of control | dose: 100.0 mg/kg/injection, schedule: Q01DX009 (ip), vehicle: saline with Tween-80 90 % of control | dose: 200.0 mg/kg/injection, schedule: Q01DX009 (ip), vehicle: saline with Tween-80 100 % of control

C[N+](C)(C)CCBr
inactive: dose: 3.12 mg/kg/injection, schedule: Q01DX009 (ip), vehicle: saline 100 % of control | dose: 6.25 mg/kg/injection, schedule: Q01DX009 (ip), vehicle: saline 104 % of control | dose: 12.5 mg/kg/injection, schedule: Q01DX009 (ip), vehicle: saline 101 % of control | dose: 12.5 mg/kg/injection, schedule: Q04DX003 (ip), vehicle: saline 105 % of control | dose: 25.0 mg/kg/injection, schedule: Q01DX009 (ip), vehicle: saline 101 % of control | dose: 25.0 mg/kg/injection, schedule: Q04DX003 (ip), vehicle: saline 100 % of control

OC1(O)CCCCN1Cc1ccccc1
inactive: dose: 25.0 mg/kg/injection, schedule: Q01DX005 (ip), vehicle: saline 103 % of control | dose: 50.0 mg/kg/injection, schedule: Q01DX005 (ip), vehicle: saline 101 % of control | dose: 100.0 mg/kg/injection, schedule: Q01DX005 (ip), vehicle: saline 100 % of control | dose: 200.0 mg/kg/injection, schedule: Q01DX005 (ip), vehicle: saline 107 % of control

O=C(Cc1nc2ccc(Cl)cc2[nH]c1=O)c1ccccc1
inactive: [2] 112 % of control | [3] 108 % of control | [4] 107 % of control

O=C(NCCCl)Oc1ccc(F)cc1
inactive: dose: 50.0 mg/kg/injection, schedule: Q01DX005 (ip), vehicle: Klucel (hydroxypropylcellulose) (HPC) 100 % of control | dose: 100.0 mg/kg/injection, schedule: Q01DX005 (ip), vehicle: Klucel (hydroxypropylcellulose) (HPC) 100 % of control | dose: 200.0 mg/kg/injection, schedule: Q01DX005 (ip), vehicle: Klucel (hydroxypropylcellulose) (HPC) 110 % of control

Cc1c(C)[n+](=O)c2ccc(C=O)cc2n1[O-]
inactive: [5] 97 % of control | [6] 94 % of control | dose: 200.0 mg/kg/injection, schedule: Q01DX009 (ip), vehicle: suspension in saline 94 % of control

COC1=NO[C@@H]2C=CO[C@H]12
inactive: [7] 105 % of control | [8] 100 % of control | [9] 93 % of control

CC(=O)Nn1cnc2ccccc2c1=O
inactive: dose: 25.0 mg/kg/injection, schedule: Q04DX003 (ip), vehicle: saline with Tween-80 97 % of control | dose: 50.0 mg/kg/injection, schedule: Q04DX003 (ip), vehicle: saline with Tween-80 90 % of control | dose: 100.0 mg/kg/injection, schedule: Q04DX003 (ip), vehicle: saline with Tween-80 93 % of control | dose: 200.0 mg/kg/injection, schedule: Q04DX003 (ip), vehicle: saline with Tween-80 101 % of control

c1ccc2c(c1)Nc1nccnc1[Se]2
inactive: dose: 100.0 mg/kg/injection, schedule: Q04DX002 (ip), vehicle: Klucel (hydroxypropylcellulose) (HPC) 100 % of control | dose: 200.0 mg/kg/injection, schedule: Q04DX002 (ip), vehicle: Klucel (hydroxypropylcellulose) (HPC) 101 % of control | dose: 400.0 mg/kg/injection, schedule: Q04DX002 (ip), vehicle: Klucel (hydroxypropylcellulose) (HPC) 101 % of control

CCN(CC)CCSCCN(CC)CC
inactive: [10] 98 % of control | [7] 110 % of control | [8] 98 % of control

O=C(N/N=C/c1ccco1)c1ccc(OCc2nc3ccccc3[nH]2)cc1
inactive: [10] 97 % of control | [7] 94 % of control | [8] 87 % of control | [9] 94 % of control

CC/C=C\C/C=C\C/C=C\CCCCCCCC(=O)O
inactive: dose: 40.0 mg/kg/injection, schedule: Q01DX009 (ip), vehicle: Klucel (hydroxypropylcellulose) (HPC) 92 % of control | dose: 80.0 mg/kg/injection, schedule: Q01DX009 (ip), vehicle: Klucel (hydroxypropylcellulose) (HPC) 100 % of control | dose: 160.0 mg/kg/injection, schedule: Q01DX009 (ip), vehicle: Klucel (hydroxypropylcellulose) (HPC) 98 % of control | dose: 320.0 mg/kg/injection, schedule: Q01DX009 (ip), vehicle: Klucel (hydroxypropylcellulose) (HPC) 95 % of control
